Structures are written as SMILES. Bounds are passed on as bounds.

Among the data in patent US20230279020A9, “CARM1 INHIBITORS AND USES THEREOF” (Epizyme, Inc., priority 2013, published 2023) are IC50 values, retold here.

Human CARM1 (PRMT4), sequence (Q86X55 other isoform, or with tags, fused parts or gaps isoform Q86X55-1): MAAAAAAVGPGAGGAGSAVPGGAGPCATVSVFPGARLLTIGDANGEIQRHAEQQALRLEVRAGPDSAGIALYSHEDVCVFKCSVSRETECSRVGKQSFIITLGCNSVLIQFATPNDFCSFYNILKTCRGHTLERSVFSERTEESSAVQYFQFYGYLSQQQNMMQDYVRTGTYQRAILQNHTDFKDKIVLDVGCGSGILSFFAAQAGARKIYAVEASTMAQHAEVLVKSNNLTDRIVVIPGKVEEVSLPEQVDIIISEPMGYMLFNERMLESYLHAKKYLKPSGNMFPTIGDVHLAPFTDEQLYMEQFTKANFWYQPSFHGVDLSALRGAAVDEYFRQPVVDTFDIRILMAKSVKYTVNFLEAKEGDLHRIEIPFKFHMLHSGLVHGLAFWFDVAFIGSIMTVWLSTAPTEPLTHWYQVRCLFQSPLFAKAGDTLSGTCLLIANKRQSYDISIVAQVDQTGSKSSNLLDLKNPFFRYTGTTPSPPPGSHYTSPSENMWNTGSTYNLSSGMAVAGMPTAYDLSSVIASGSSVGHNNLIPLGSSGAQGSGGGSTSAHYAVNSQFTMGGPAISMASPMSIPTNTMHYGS

The target in the assay is Human CARM1 (PRMT4) (Homo sapiens (Human), UniProt Q86X55). Put plainly: CARM1 enzyme assay on peptide substrate (3H-SAM Flashplate). To be noted: Biochemical potencies, classification codes; read-out: Biochem IC50. An excerpt:
S-adenosylmethionine (SAM), S-adenosylhomocysteine (SAH), bicine, Tween20, dimethylsulfoxide (DMSO), bovine skin gelatin (BSG), sodium butyrate and Tris(2-carboxyethyl)phosphine hydrochloride solution (TCEP) were purchased from Sigma-Aldrich at the highest level of purity possible. ^3H-SAM was purchase from American Radiolabeled Chemicals with a specific activity of 80 Ci/mmol. 384-well streptavidin Flashplates were purchased from PerkinElmer.
Peptide representative of human histone H3 residues 16-30 was synthesized with an N-terminal linker-affinity tag motif and a C-terminal amide cap by 21st Century Biochemicals. […] The sequence was Biot-Ahx-[…]-amide and contained a monomethylated arginine at position 26 (SEQ ID NO.:1).
The gene sequence encoding isoform1 containing a deletion of amino acids 539-561 was amplified subsequently and subcloned into pFastBacMam (Viva Biotech).
Recombinant baculovirus were generated according to Bac-to-Bac kit instructions (Life Technologies). Protein over-expression was accomplished by infecting exponentially growing HEK 293F cell culture at 1.3×10^6cell/ml with virus (MOI=10) in the presence of 8 mM sodium butyrate. Infections were carried out at 37° C. for 48 hours, harvested by centrifugation, and stored at −80° C. for purification.
Expressed full-length human Flag- and His-tagged CARM1 protein was purified from cell paste by anti-flag M2 affinity chromatography with resin equilibrated with buffer containing 20 mM Tris, 150 mM NaCl, 5% glycerol, pH 7.8. Column was washed with 500 mM NaCl in buffer A and Flag-CARM1-His was eluted with 200 ug/ml FLAG peptide in buffer A. Pooled fractions were dialyzed in 20 mM Tris, 150 mM NaCl, 5% glycerol and 1 mM DTT, pH 7.8.
The assays were all performed in a buffer consisting of 20 mM Bicine (pH=7.6), 1 mM TCEP, 0.005% BSG, and 0.002% Tween 20, prepared on the day of use. Compounds in 100% DMSO (1 ul) were spotted into a polypropylene 384-well V-bottom plates (Greiner) using a Platemate Plus outfitted with a 384-channel head (Thermo Scientific). DMSO (1 ul) was added to Columns 11, 12, 23, 24, rows A-H for the maximum signal control and 1 ul of SAH, a known product and inhibitor of CARM1, was added to columns 11, 12, 23, 24, rows I-P for the minimum signal control. A cocktail (40 ul) containing the CARM1 enzyme was added by Multidrop Combi (Thermo-Fisher). The compounds were allowed to incubate with CARM1 for 30 min at room temperature, then a cocktail (10 ul) containing ^3H-SAM and peptide was added to initiate the reaction (final volume=51 ul). The final concentrations of the components were as follows: CARM1 was 0.25 nM, ^3H-SAM was 30 nM, peptide was 250 nM, SAH in the minimum signal control wells was 1 mM, and the DMSO concentration was 2%. The assays were stopped by the addition of non-radiolabeled SAM (10 ul) to a final concentration of 300 uM, which dilutes the ^3H-SAM to a level where its incorporation into the peptide substrate is no longer detectable. 50 ul of the reaction in the 384-well polypropylene plate was then transferred to a 384-well Flashplate and the biotinylated peptides were allowed to bind to the streptavidin surface for at least 1 hour before being washed once with 0.1% Tween20 in a Biotek ELx405 plate washer. The plates were then read in a PerkinElmer TopCount plate reader to measure the quantity of ^3H-labeled peptide bound to the Flashplate surface, measured as disintegrations per minute (dpm) or alternatively, referred to as counts per minute (cpm).
where dpm=disintegrations per minute, cmpd=signal in assay well, and min and max are the respective minimum and maximum signal controls.
where top and bottom are the normally allowed to float, but may be fixed at 100 or 0 respectively in a 3-parameter fit. The Hill Coefficient normally allowed to float but may also be fixed at 1 in a 3-parameter fit. Y is the % inhibition and X is the compound concentration.
Take `CNCC(O)COc1cc(Cl)cc(-c2nc(N[C@@H]3CCOC3)cc(-c3c(C)noc3C)n2)c1` (stereo partly drawn) [Example 10-1a]: the IC50 is under 100 nM.

As to `CNCC(O)COc1cccc(-c2nc(N[C@H]3CCC[C@@H](O)C3)c(C)c(-c3c(C)noc3C)n2)c1` (stereo partly drawn) [Example 10-3], the half-maximal inhibitory concentration (IC50) was under 100 nM.

Regarding `C=C(C)c1cc(N(C)C2CCOCC2)nc(-c2cccc(OCC(O)CNC)c2)n1` (stereo not drawn) [Example 11-1], the IC50 was under 100 nM.

Take `CNCC(O)COc1cccc(-c2nc(N[C@@H]3CCOC3)cc(-c3c(C)noc3C)n2)c1` (stereo partly drawn) [Example 11-1a]: the IC50 was under 100 nM.

`CNCC(O)COc1cccc(-c2nc(N[C@@H]3CCOC3)c(C)c(N3CC4CN(S(C)(=O)=O)CC4C3)n2)c1` (stereo partly drawn) [Example 11-3]: the half-maximal inhibitory concentration (IC50) is under 100 nM.

Take `CNCC(O)COc1cc(Cl)cc(-c2nc(N[C@H]3CCOC3)cc(-c3c(C)noc3C)n2)c1` (stereo partly drawn) [Example 12-1a]: the IC50 was under 100 nM.

As to `CNCC(O)COc1cccc(-c2nc(-c3c(C)noc3C)c(C)c(N3CC(NC(=O)OC)C3)n2)c1` (stereo not drawn) [Example 12-3], the IC50 was under 100 nM.

Consider `CNCC(O)COc1cccc(-c2nc(C(C)C)cc(N(C)C3CCOCC3)n2)c1` (stereo not drawn) [Example 13-1], for which the IC50 was under 100 nM.

For the compound `CNCC(O)COc1cccc(-c2nc(N[C@H]3CCOC3)cc(-c3c(C)noc3C)n2)c1` (stereo partly drawn) [Example 13-1a], the concentration for half-maximal inhibition (IC50) is under 100 nM.

Regarding `CNCC(O)COc1cccc(-c2nc(-c3c(C)noc3C)c(C)c(N3CC(NC(=O)N(C)C)C3)n2)c1` (stereo not drawn) [Example 13-3], the half-maximal inhibitory concentration (IC50) is under 100 nM.

For `NCC(O)COc1cccc(-c2nc(N3CCOCC3)cc(N3CCOCC3)n2)c1` (stereo not drawn) [Example 14-1], the IC50 was under 100 nM.

On to `CNCC(O)COc1cccc(-c2cc(N(C)C3CCOCC3)nc(-c3cccnc3)n2)c1` (stereo not drawn) [Example 14-2], for which the IC50 was under 100 nM.

Regarding `CCC(=O)NC1CN(c2nc(-c3cccc(OCC(O)CNC)c3)nc(-c3c(C)noc3C)c2C)C1` (stereo not drawn) [Example 14-3], the half-maximal inhibitory concentration (IC50) is under 100 nM.

Regarding `CNCC(O)COc1cccc(-c2nc(N(C)C)cc(N(C)C3CCOCC3)n2)c1` (stereo not drawn) [Example 15-1], the half-maximal inhibitory concentration (IC50) was under 100 nM.

For `Cc1noc(C)c1-c1cc(NC2CCOCC2)nc(-c2cccc(OC[C@@H](O)CN)c2)n1` [Example 15-1a], the IC50 was under 100 nM.

As to `CNCC(O)COc1cccc(-c2cc(N(C)C3CCOCC3)nc(N3CCOCC3)n2)c1` (stereo not drawn) [Example 15-2], the concentration for half-maximal inhibition (IC50) was under 100 nM.

As to `CNCC(O)COc1cccc(-c2nc(-c3c(C)noc3C)c(C)c(N3CCC[C@H](N(C)C(=O)OC)C3)n2)c1` (stereo partly drawn) [Example 15-3], the IC50 was under 100 nM.

With `Cc1noc(C)c1-c1cc(NC2CCOCC2)nc(-c2cccc(OC[C@H](O)CN)c2)n1` [Example 16-1a], the IC50 was under 100 nM.

`CNCC(O)COc1cccc(-c2cc(N(C)C3CCOCC3)nc(-c3cnc4[nH]ccc4c3)n2)c1` (stereo not drawn) [Example 16-2]: the IC50 was under 100 nM.

Take `CCS(=O)(=O)N1CC2(CN(c3nc(-c4cccc(OCC(O)CNC)c4)nc(-c4c(C)noc4C)c3C)C2)C1` (stereo not drawn) [Example 16-3]: the IC50 was under 100 nM.

As for `CNC[C@H](O)COc1cccc(-c2nc(NC3CCOCC3)cc(-c3c(C)noc3C)n2)c1` [Example 17-1a], the IC50 was under 100 nM.

Consider `CNCC(O)COc1cccc(-c2nc(-c3c(C)noc3C)c(C)c(N3CCN(C(=O)OC)C(C(F)F)C3)n2)c1` (stereo not drawn) [Example 17-3], for which the IC50 was under 100 nM.

With `CNCC(O)COc1cccc(-c2nc(-c3cncnc3)cc(N(C)CCC#N)n2)c1` (stereo not drawn) [Example 18-1], the half-maximal inhibitory concentration (IC50) was under 100 nM.

As for `CNC[C@@H](O)COc1cccc(-c2nc(NC3CCOCC3)cc(-c3c(C)noc3C)n2)c1` [Example 18-1a], the IC50 is under 100 nM.

Take `CNCC(O)COc1cccc(-c2nc(Nc3nccn3C)c(C)c(-c3c(C)noc3C)n2)c1` (stereo not drawn) [Example 18-3]: the IC50 was under 100 nM.

For `CNCC(O)COc1cccc(-c2nc(N(C)C3CCOCC3)cc(C3(C)CC3)n2)c1` (stereo not drawn) [Example 19-1], the IC50 was under 100 nM.

Take `CNCC(O)COc1cccc(-c2nc(-c3c(C)noc3C)cc(N3CCN(C)CC3)n2)c1` (stereo not drawn) [Example 19-1a]: the half-inhibitory concentration (IC50) is under 100 nM.
